Data as given in publication PMC3710292 (Cellular and molecular life sciences : CMLS, 2013).

Assays:
Type in all cases: cell-based
human TRPM7 = human TRPM7 (Homo sapiens, UniProt Q96QT4); assay: whole-cell patch clamp, current at +[…] mV
TRPM7 Δ-kinase = TRPM7 Δ-kinase (Homo sapiens, UniProt Q96QT4); assay: whole-cell patch clamp, current at +[…] mV
human TRPM6 (hTRPM6) = human TRPM6 (hTRPM6) (Homo sapiens, UniProt Q9BX84); assay: whole-cell patch clamp, current at +[…] mV, […] s; details: intracellular iodide 154 mM; no intracellular Mg2+; pH 7.2
Sequence of human TRPM6 (hTRPM6) (Q9BX84 whole entry): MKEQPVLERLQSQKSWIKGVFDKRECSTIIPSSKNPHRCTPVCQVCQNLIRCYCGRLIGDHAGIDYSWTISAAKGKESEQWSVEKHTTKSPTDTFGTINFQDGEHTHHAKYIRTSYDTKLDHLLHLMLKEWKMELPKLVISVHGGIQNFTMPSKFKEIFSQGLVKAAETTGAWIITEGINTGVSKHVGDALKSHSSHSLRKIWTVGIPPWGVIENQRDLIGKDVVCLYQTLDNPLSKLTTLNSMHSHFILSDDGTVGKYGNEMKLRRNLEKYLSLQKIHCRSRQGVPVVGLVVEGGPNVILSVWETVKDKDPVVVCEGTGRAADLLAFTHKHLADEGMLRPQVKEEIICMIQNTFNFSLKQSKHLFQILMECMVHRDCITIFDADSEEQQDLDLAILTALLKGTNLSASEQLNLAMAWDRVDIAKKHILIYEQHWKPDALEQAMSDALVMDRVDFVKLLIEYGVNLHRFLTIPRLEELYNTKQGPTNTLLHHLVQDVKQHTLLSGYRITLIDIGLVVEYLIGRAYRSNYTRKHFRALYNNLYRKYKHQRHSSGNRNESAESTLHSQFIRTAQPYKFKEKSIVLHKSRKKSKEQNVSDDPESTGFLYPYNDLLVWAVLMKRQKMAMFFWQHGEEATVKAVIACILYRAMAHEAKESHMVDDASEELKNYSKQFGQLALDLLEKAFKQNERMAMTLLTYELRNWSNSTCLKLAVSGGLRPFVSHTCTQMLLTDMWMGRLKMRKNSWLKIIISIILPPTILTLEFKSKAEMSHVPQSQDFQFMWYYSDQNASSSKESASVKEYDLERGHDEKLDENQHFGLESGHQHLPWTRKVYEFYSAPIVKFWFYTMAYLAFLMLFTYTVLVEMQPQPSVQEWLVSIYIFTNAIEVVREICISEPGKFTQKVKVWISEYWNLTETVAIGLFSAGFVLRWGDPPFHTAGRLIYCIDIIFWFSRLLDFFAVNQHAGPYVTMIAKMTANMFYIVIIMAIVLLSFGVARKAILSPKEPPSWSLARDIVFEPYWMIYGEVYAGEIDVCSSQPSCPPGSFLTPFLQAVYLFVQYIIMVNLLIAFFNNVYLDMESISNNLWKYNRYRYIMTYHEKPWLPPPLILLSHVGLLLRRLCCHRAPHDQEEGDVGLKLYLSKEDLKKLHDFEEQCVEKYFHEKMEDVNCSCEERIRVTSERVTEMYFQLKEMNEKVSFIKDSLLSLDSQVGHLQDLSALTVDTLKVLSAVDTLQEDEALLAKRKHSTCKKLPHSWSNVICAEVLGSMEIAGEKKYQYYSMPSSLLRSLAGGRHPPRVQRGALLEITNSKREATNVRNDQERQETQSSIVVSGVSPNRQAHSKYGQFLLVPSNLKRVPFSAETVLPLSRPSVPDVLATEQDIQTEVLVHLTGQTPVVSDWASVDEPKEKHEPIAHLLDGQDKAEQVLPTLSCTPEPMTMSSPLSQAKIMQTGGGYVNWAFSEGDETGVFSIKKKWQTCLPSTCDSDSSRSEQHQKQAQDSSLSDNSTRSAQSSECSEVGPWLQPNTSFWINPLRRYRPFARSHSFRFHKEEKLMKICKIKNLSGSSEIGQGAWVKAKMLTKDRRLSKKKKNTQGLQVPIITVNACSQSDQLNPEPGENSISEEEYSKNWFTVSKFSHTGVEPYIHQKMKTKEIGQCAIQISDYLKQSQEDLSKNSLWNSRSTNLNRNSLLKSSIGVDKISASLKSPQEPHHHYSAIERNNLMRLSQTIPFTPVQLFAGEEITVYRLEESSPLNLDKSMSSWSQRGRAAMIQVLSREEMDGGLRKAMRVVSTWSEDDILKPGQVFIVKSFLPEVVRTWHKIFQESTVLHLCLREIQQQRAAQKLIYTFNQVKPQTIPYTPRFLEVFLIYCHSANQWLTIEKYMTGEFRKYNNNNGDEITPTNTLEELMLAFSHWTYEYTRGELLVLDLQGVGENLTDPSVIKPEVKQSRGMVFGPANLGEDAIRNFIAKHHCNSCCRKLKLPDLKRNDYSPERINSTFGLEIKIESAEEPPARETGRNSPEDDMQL

Sequence of human TRPM7 (Q96QT4 whole entry): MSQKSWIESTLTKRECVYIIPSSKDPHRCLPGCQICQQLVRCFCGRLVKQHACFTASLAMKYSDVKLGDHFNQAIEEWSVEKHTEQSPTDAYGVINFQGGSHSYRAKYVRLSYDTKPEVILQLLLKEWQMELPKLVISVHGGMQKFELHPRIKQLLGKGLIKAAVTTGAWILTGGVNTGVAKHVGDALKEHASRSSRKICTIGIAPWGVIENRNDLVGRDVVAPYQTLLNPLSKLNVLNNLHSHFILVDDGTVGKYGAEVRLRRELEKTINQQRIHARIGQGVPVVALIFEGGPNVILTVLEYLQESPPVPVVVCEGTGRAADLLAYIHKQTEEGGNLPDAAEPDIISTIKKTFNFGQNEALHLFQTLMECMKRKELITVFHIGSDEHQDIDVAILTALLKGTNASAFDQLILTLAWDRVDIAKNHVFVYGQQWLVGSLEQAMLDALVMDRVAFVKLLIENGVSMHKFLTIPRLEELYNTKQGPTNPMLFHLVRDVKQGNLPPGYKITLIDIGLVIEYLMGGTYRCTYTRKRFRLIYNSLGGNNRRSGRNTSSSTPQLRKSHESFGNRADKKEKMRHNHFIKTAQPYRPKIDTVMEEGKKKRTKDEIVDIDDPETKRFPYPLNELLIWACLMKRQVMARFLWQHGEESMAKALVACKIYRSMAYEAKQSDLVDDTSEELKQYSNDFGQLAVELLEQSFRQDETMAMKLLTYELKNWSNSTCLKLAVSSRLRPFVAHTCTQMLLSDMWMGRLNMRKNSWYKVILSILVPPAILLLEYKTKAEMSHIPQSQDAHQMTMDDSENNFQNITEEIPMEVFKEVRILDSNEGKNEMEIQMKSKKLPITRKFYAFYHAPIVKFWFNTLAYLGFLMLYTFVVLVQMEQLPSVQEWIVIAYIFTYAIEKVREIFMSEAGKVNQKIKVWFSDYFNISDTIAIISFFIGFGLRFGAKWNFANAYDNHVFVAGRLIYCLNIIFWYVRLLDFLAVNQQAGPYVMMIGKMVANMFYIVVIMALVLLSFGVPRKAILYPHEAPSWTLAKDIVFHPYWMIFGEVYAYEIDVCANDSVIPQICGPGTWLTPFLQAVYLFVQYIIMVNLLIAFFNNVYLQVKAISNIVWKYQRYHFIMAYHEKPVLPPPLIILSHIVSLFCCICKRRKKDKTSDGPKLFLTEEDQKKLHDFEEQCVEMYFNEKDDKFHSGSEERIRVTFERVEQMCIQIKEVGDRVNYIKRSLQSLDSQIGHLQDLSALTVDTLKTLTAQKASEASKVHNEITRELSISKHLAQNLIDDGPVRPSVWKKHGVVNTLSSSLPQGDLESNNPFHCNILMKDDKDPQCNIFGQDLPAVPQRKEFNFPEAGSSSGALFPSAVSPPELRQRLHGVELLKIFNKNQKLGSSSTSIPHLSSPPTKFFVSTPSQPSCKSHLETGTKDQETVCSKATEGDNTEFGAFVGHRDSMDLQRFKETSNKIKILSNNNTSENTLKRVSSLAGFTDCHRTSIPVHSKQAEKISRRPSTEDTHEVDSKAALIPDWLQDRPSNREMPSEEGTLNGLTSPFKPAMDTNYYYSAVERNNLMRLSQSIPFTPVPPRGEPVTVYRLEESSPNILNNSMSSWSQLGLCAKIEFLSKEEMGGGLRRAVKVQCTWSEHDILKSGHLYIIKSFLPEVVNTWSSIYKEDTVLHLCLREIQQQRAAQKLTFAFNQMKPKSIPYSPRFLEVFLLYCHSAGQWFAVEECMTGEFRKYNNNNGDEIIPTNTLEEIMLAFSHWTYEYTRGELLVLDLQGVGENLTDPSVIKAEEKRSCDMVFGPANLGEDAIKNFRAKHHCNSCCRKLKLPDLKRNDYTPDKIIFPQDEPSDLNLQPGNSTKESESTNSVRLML

SMILES | IC50 (human TRPM7) [mM] | IC50 (TRPM7 Δ-kinase) [mM] | % inhibition at 154 mM (human TRPM6 (hTRPM6)) [%]
Br [bromide] | 88 ± 6 |  | 
Cl [chloride] | 99 ± 9 |  | 
I [iodide] |  | 31 ± 3 | 52
